Legend:
HCT116 cells [1] = assay: Caspase-3 activation (Caspase-Glo 3/7, immunoblotting of caspase-3 and PARP); type: cell-based, human; conditions: for caspase-3/7 activity and cleavage of caspase-3 and PARP: cells exposed to Dox (1 μM) alone or co-treated with tioconazole (40 μM)
Source text: The cell lysates were used for immunoblotting with antibodies against the primary antibodies against ATG4B (A2981), LC3 (L7543), and ACTB (β-actin, A5441) (all purchased from Sigma-Aldrich). […] The membrane was scanned and analyzed for the protein expression level with the ChemiDoc XRS Imaging System (Bio-Rad).

ATG4B [2] = target: T1, ATG4B (Homo sapiens, UniProt Q9Y4P1); assay: LC3-PLA2 biochemical ATG4 reporter assay; conditions: FIG. 2 and 4
T1 sequence (Q9Y4P1 1-393): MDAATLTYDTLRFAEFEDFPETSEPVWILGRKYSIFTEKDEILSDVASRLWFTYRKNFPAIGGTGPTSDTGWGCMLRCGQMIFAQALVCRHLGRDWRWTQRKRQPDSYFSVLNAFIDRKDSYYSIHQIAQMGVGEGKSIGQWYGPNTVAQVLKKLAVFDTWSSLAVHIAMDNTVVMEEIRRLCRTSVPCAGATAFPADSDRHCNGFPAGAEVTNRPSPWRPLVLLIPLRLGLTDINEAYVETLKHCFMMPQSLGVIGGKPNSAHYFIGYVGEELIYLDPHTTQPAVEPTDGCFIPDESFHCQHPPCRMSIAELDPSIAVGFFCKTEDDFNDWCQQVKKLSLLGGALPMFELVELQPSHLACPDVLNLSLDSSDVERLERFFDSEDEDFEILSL
Source text: (§1) Quantitative results are shown in each panel (n=4). […] Bar: 100 μm.

HCT116 cells [3] = assay: FACS cell cycle distribution, subG1 population; conditions: Dox 1 μM, 24 h
ATG4A [4] = target: T2, ATG4A (Homo sapiens, UniProt Q8WYN0); conditions: ATG4A 50 nM, 500 nM GABARAPL2-PLA2, 1 h, anti-Myc
Description: (§2) The fluorescence intensity was kinetically monitored for 1 h to determine the ATG4 activity at room temperature with excitation and emission wavelengths of 485 and 530 nm, respectively.
(§3) For cleavage of GABARAPL2-PLA2 and caspase-3 activation, reaction mixtures or cell lysates were immunoblotted with antibodies against Myc (Roche, 11667149001), caspase-3 (Cell Signaling, 9661), PARP (Cell Signaling, 9532) and GAPDH (Cell Signaling, 5174).
(§4) (FIG. 5) ATG4B (1 nM) or (FIG. 6) ATG4A (50 nM) was mixed with 10-fold serially diluted Tc and 500 nM GABARAPL2-PLA2 for 1 h. The cleavage of GABARAPL2-PLA2 was validated with immunoblotting using an anti-Myc antibody.

ATG4 = ATG4 (Homo sapiens, UniProt Q9Y4P1); conditions: HEK293T cells, FIG. 8
Description: For the ATG4 cleavable reporter assay in mammalian cells, the N-terminus (NLuc, residues 2-416) and C-terminus (CLuc, residues 398-550) of the luciferase gene were constructed in the expression vector pcDNA3.0. […] The luciferase activity was measured via One-Glo (Promega) according to the instruction manual. The non-cleavable mutant G120A was used to normalize the luminescent signal and determine the ATG4 activity.
Quantitative results are shown in each panel (n=4). […] (FIG. 7) The expression vector that encoded ATG4-cleavable luciferase was constructed with LC3 and a luciferase chimera gene, as shown in the schematic diagram (upper panel). HEK293T cells were transfected with scramble siRNA (siCtrl) or siRNA against ATG4B (siATG4B) for 48 h, followed by transfection with the ATG4 reporter vector for 24 h. The luciferase activity was measured with a luminescent reader (n=6), and the knockdown efficiency of ATG4B was determined using immunoblotting. […] The cleavage of LC3 and luciferase chimera protein by ATG4 in cells treated with Tc or untreated cells was verified via immunoblotting (upper panel).
Briefly, LC3 was constructed to split N-terminal and C-terminal luciferase in a mammalian expression vector, as indicated (FIG. 7).

ATG4B [5] = target: T1, ATG4B; conditions: ATG4B 1 nM, 500 nM GABARAPL2-PLA2, 1 h, anti-Myc
Description: as §2, §3, §4

ATG4B [6] = target: T1, ATG4B; assay: ATG4B reporter yeast cell-based assay; conditions: ATG4 reporter yeast cells, FIG. 2
Description: as §1
FIGS. 55-58 show the characterization of yeast based ATG4B reporter assay for hts. (FIG. 55) Two-fold serial titrated yeast that harbored the LC3 reporter with wild type ATG4B (WT) or catalytic mutant (C74A) expression vector and reporter vector were seeded into a 384-well plate for 24 or 48 h. The substrate of […] X-gal (80 μg/ml) was included in the SD medium for the colorimetric assay. (FIG. 56) Beta-Glo was added into each well as (A) at 24 or 48 h to optimize the yeast concentration for the luminescent substrate. (FIG. 57) Yeast that harbored the wild type (WT) ATG4B and catalytic mutant (C74A) were used to determine the ratio of signal (WT)/background (C74A) and compare the sensitivity between the colorimetric and luminescent substrates. (FIG. 58) […] of yeast reporter cells (1.5×10^4 cells/ml) as previously described were seeded into a 384-well white plate for 24 h. Ten μl of the luminescent substrate Beta-Glo was added to each well, and the luminescent signal was read to determine the ATG4B activity. The luminescent signal between the wild type (WT) ATG4B and catalytic mutant (C/A) was used to determine the assay robustness (Z′ factor: 0.78).

[7] = tested on: H4, HCT116 and MDA-MB-231 cells; assay: Cell viability assay (CellTiter-Glo, cellular impedance); type: cell-based, human
Description: Cells were seeded into a 384-well plate overnight and treated with various drugs for 24 h. CellTiter-Glo (Promega, Madison, Wis., USA) was subsequently added to the treated cells, and the luminescence was read using a Fluoroskan Ascent FL reader (Thermo Fisher Scientific). Alternatively, the cell viability was monitored with an impedance-based instrument system (iCELLigence, ACEA Biosciences) for live cells. Briefly, H4 cells, HCT116 cells and MDA-MB-23 cells (4×10^4 cells/well) were seeded into electronic plates (E-Plates L8, ACEA Biosciences) with 400 μl of DMEM that contained 10% FBS and incubated for 30 h. […] The cellular impedance was periodically measured every 15 minutes until 80 h.
The cell viability was accessed with CellTiter-Glo.

HCT116 spheroids = conditions: 48 h
Description: The cells (4000 cells/well) were seeded into an ultra-low attachment, 96-well plate (Costar®, USA) and grown overnight to form spheroid cells. […] The spheroid cells were stained with Calcein AM (1 μM) and Ethidium homodimer-1 (EthD-1, 2 μM) (LIVE/DEAD® Viability/Cytotoxicity Kit, ThermoFisher Scientific) for 30 minutes. The live (green) and dead (red) spheroid cells were imaged via fluorescence microscopy and quantitated using a Fluoroskan Ascent FL reader (Thermo Fisher Scientific) with excitation at 485 nm and emissions at 530 nm and 645 nm for calcein AM and EthD-1, respectively.
(FIG. 44) HCT116 cells were cultured in an ultra-low attachment dish for 24 h to form spheres. […] Scale bar: 400 μm. (FIG. 45) The relative sphere volume was quantified using DMSO-treated cells as the normalized control. (FIG. 46) HCT116 sphere-forming cells treated as (A) were lysed to measure ATP levels and assess cell viability. […] The viable and dead spheres were imaged with a LIVE/DEAD staining kit. The knockdown efficiency of ATG genes was verified by immunoblotting (left panel) (FIG. 48) The red fluorescence of the spheres in FIG. 47 was quantitated with a reader to assess the dead cell population (n=6).

[8] = tested on: HCT116 and H4 cells expressing GFP-LC3 and RFP-Lamp1; conditions: Tc 6 h, confocal microscopy
Description: Human colorectal cancer HCT116 cells, glioblastoma H4 cells and breast cancer MDA-MB-231 from the ATCC were cultured in Dulbecco's modified Eagle's medium (DMEM) (Invitrogen, 12100-046) supplemented with 10% HyClone fetal bovine serum, penicillin (100 U/ml), and streptomycin (100 mg/ml). […] The treated cells were harvested to determine cell viability, apoptosis and immunoblotting.
The treated cells were fixed to observe the GFP-LC3 puncta via fluorescence microscopy.
(FIG. 23) HCT116 cells expressing GFP-LC3 and RFP-Lamp1 were treated with Tc for 6 h and fixed to observe colocalization of GFP-LC3 and RFP-Lamp1 with confocal microscopy. GFP-LC3 that had colocalized with or was surrounded by RFP-Lamp1 was identified as fusion between autophagosomes and lysosomes. The colocalization coefficients of images were quantified by the Ziess LSM 710 Software and are shown in the right panel. Bar: 20 m.

ATG4B and LC3 complex = ATG4B and LC3 complex (Homo sapiens, UniProt Q9Y4P1); conditions: HEK293T cells, flow cytometry
Description: The plasmids (1 μg/well) were transfected with lipofectamine 2000 transfection reagent (Life Technologies, 11668-027) into HEK293T cells in a 6-well plate for 24 h. The cells were imaged via fluorescence microscopy or harvested to quantify the fluorescence intensity via a flow cytometer (Becton Dickinson).
After overnight culture, the cells were fixed to observe Venus complementary under fluorescence microscopy (right panel). […] (FIG. 10) The transfected cells were treated with Tc for 8 h and fixed for flow cytometry to quantify Venus fluorescence using GFP as a counter assay.
The cells were fixed to determine Venus complementation with flow cytometry and quantitated with FlowJo. HEK 293T cells transfected with or without GFP expression vector were used as the blank and counter controls, respectively.

ATG4A [9] = target: T2, ATG4A; assay: biochemical
Description: as §2, §3, §4

HCT116 and H4 cells = conditions: Dox-treated cells, Tc 40 μM, JC-1
Description: For the MMP analysis, the cells were treated with JC-1 (5,5,6,6-tetrachloro-1,1,3,3-tetraethyl-benzimidazolylcarbocyanine iodide, Invitrogen) at 37° C. for 20 min prior to harvesting.

[10] = tested on: H4 cells that stably express GFP-LC3; conditions: tioconazole 8 h
Description: The treated cells were fixed to observe the GFP-LC3 puncta via fluorescence microscopy. For protein colocalization, the H4 stable cells previously described were transfected with 1 μg plasmids Cherry tagged ATG4B or Lamp1-RFP (Addgene, 1817) for 36 h using Lipofectamine 2000 (Invitrogen).
(FIG. 17) Human glioma H4 cells that stably express GFP-LC3 were transfected with 5 nM non-targeting siRNA (Ctrl) or siRNA against ATG4 family members (ATG4) for 48 h, and the knockdown efficiency of ATG4 was verified with real time PCR. (FIG. 18) The knockdowned cells were fixed for observation via fluorescence microscopy, and the number of GFP-LC3 puncta is quantified in the right panel. […] The autophagy inhibitor CQ was used as a positive control. […] Representative autophagic vacuoles (AVs) are shown. […] (FIG. 22) The numbers of AVs for each optical section (9 m^2) are quantified (n=8). (FIG. 23) HCT116 cells expressing GFP-LC3 and RFP-Lamp1 were treated with Tc for 6 h and fixed to observe colocalization of GFP-LC3 and RFP-Lamp1 with confocal microscopy. […] The colocalization coefficients of images were quantified by the Ziess LSM 710 Software and are shown in the right panel. […] Cells were harvested for immunoblotting using antibodies against LC3, ATG4B or ACTB, and autophagy flux was quantified in untreated cells and cells treated with CQ based on changes in LC3-II. […]

ATG4B [11] = target: T1, ATG4B; assay: biochemical
Description: as §2, §3, §4

[12] = tested on: H4, HCT116 or MDA-MB-231 cells
Description: The cells were briefly rinsed in PBS (Biological Industries, 02-023-1) and lysed with RIPA buffer (1% NP40 [MDBio, 101-9016-45-9], 50 mM Tris HCl, pH 7.5, 150 mM NaCl, 0.25% sodium deoxycholate [Sigma-Aldrich, D6750], 1% sodium dodecyl sulfate [SDS; Calbiochem, 428015], and protease inhibitor cocktail [Roche, 11873580001]). The cell lysates were used for immunoblotting with antibodies against the primary antibodies against ATG4B (A2981), LC3 (L7543), and ACTB (β-actin, A5441) (all purchased from Sigma-Aldrich). The differential accumulations of LC3 in cells with and without CQ were used to quantitate the autophagic flux (Mizushima et al., 2010). […] The proteins were probed with an HRP-labeled secondary antibody (Santa Cruz, sc-2004 or sc-2005) and detected with an ECL reagent. The membrane was scanned and analyzed for the protein expression level with the ChemiDoc XRS Imaging System (Bio-Rad).
The autophagy inhibitor CQ was used as a positive control. […] (FIG. 24) HCT16 cells were transfected with siRNA (5 nM) for 66 h and then treated with CQ (20 μM) for 2 h. Cells were harvested for immunoblotting using antibodies against LC3, ATG4B or ACTB, and autophagy flux was quantified in untreated cells and cells treated with CQ based on changes in LC3-II. […] (FIG. 26) The autophagic flux was quantified as described in FIG. 25.

HCT116 cells [13] = conditions: Tc 40 μM, versus untreated cells
Description: HCT116 cells treated with T2 (40 μM), CQ (20 μM) for 8 h were rinsed with PBS once and fixed in 2% glutaraldehyde at room temperature for 30 min. The cells were harvested to postfix with 1% osmium tetroxide and stained with 2% uranyl acetate (Agar Scientific) at room temperature for 1 h. The cell pellets were embedded to obtain 80 nm sections with a diamond knife. The sections were stained with 2% uranyl acetate and 0.3% lead citrate (Agar Scientific) and imaged with a JEM1400 PLUS transmission electron microscope (JEOL).
The autophagy inhibitor CQ was used as a positive control. Bar: 20 μm. […] Representative autophagic vacuoles (AVs) are shown. Arrowhead: autophagosome. Bar: 200 nm. (FIG. 22) The numbers of AVs for each optical section (9 m^2) are quantified (n=8).

[14] = tioconazole-treated mice, immunohistochemistry

T2 sequence (Q8WYN0 whole entry): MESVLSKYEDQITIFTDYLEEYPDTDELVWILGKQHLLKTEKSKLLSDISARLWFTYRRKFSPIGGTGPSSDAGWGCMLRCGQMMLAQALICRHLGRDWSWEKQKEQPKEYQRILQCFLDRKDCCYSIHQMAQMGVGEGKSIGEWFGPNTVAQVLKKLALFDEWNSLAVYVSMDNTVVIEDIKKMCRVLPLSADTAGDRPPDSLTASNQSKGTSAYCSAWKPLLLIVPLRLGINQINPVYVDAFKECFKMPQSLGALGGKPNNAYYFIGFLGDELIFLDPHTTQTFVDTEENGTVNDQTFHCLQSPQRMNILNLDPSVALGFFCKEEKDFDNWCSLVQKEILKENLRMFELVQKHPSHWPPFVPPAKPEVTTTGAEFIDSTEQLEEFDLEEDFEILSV
Description for HCT116 xenograft tumors: Human colorectal cancer HCT116 cells (2×10^6) were mixed with Matrigel (1:1) and subcutaneously implanted into six-week old immunodeficient mice (nu/nu, female). […] The tumor size in each mouse was measured every 3 to 4 days with vernier calipers, and the tumor volumes were calculated using the formula (larger diameter)×(smaller diameter)2×7π/6. Tumors were further cut from euthanized mice and embedded in paraffin. […] The protein levels in the tumor sections were determined using the UltraVision™ Quanto Detection System HRP DAB (Thermo Scientific) and observed under microscopy.
The tumor volume (circle) in each mouse was measured every 3 to 4 days (5 per group). The p values were determined with an ANOVA. […] The quantified results were obtained from at least 1500 cells and are shown in the right panel. p>0.05; *p<0.05; **p<0.01; ***p<0.001.

Molecule: COc1cccc2c1C(=O)c1c(O)c3c(c(O)c1C2=O)C[C@@](O)(C(=O)CO)C[C@@H]3O[C@H]1C[C@H](N)[C@H](O)[C@H](C)O1 [Dox, Doxorubicin]
- caspase-3/7 activity and cleavage of caspase-3 and PARP (HCT116 cells [1]): significantly elevated

Molecule: Clc1ccc(COC(Cn2ccnc2)c2ccc(Cl)cc2Cl)c(Cl)c1 (stereo not shown) [miconazole]
- inhibitory effect on ATG4B compared with tioconazole (ATG4B [2]): failed to exhibit as good inhibitory effect on ATG4B as tioconazole
- cell death in combination with Dox (subG1 proportion) (HCT116 cells [3]): less potently synergized with Dox

Molecule: Clc1ccc(C(Cn2ccnc2)OCc2ccsc2Cl)c(Cl)c1 (stereo not shown) [tioconazole]
- cleavage of GABARAPL2-PLA2 by ATG4A (immunoblotting) (ATG4A [4]): blocked the cleavage
- luciferase activity in ATG4 reporter cells (ATG4): increased the luciferase activity
- cleavage of chimera luciferase in reporter cells (ATG4; immunoblotting): attenuated the cleavage of chimera luciferase
- cleavage of GABARAPL2-PLA2 by ATG4B (immunoblotting) (ATG4B [5]): blocked the cleavage
- inhibition in the yeast cell-based assay (ATG4B [6]): strong inhibition
- caspase-3/7 activity and cleavage of caspase-3 and PARP (HCT116 cells [1]): significantly elevated
- cytotoxic effects of starvation and chemotherapy ([7]; cancer cell lines, tioconazole 40 μM combined with starvation or chemotherapeutic drugs): enhanced the cytotoxic effects of starvation and chemotherapy
- cell viability ([7]; cancer cell lines, tioconazole 40 μM, cellular ATP levels or impedance): significantly reduced the cell viability
- size of tumor spheroids (HCT116 spheroids; HCT116 spheroids, Tc 40 μM): significantly decreased the size of tumor spheroids
- cytotoxicity of Dox in spheroids (ATP levels, number of dead cells) (HCT116 spheroids; Tc 40 μM with Dox 1 μM): enhanced the cytotoxicity of Dox
- Dox-induced cell death in spheres with scramble shRNA and shRNA against ATG4B (HCT116 spheroids; Tc 40 μM, Dox 1 μM, LIVE/DEAD staining): enhanced Dox-induced cell death
- co-localization of LC3 and LAMP1 [8]: decreased the co-localization of LC3 and LAMP1
- fluorescence from formation of the ATG4B and LC3 complex (BiFC) (ATG4B and LC3 complex; Tc 8 h): reduced the fluorescence
- GFP fluorescence (counter assay) (ATG4B and LC3 complex): did not affect GFP fluorescence
- IC50 (ATG4A [9]): 1300 ± 180 nM
- mitochondrial membrane potential (MMP) (HCT116 and H4 cells): reduction of mitochondrial membrane potential
- GFP-LC3-II puncta [10]: accumulation of GFP-LC3-II puncta
- xenograft tumor weight (HCT116 xenograft tumors; Tc 60 mg/kg intraperitoneal every other day, day 21): reduced the xenograft tumor weight
- sensitivity of xenograft tumors to Dox (HCT116 xenograft tumors; Tc 60 mg/kg with Dox 1 mg/kg intraperitoneal every other day): sensitized xenograft tumors to Dox
- levels of cleaved caspase-3 in tumor tissues (HCT116 xenograft tumors; [14]): significantly increased
- number of LC3 puncta in tumor tissues (HCT116 xenograft tumors; [14]): significantly increased
- IC50 (ATG4B [11]): 1800 ± 160 nM
- cell death in combination with Dox (subG1 proportion) (HCT116 cells [3]): synergistically increased cell death
- autophagic flux (LC3-II accumulation with and without CQ) ([12]; Tc 6 h, with or without CQ 20 μM): significantly attenuated autophagic flux
- LC3-II turnover and SQSTM1 degradation triggered by starvation and chemotherapeutic drugs ([12]; cancer cells, starvation or CPT/Dox 24 h, immunoblotting): blocked LC3-II turnover and SQSTM1 degradation
- number of autophagosomes (TEM) (HCT116 cells [13]): increased

Molecule: z-VAD-fmk
- caspase-3 activation after pretreatment (HCT116 cells [1]; zVAD-FMK 50 μM, cells treated with tioconazole and Dox): blocked caspase-3 activation
- apoptotic effects of tioconazole and Dox after pretreatment (cell viability) ([7]; zVAD-FMK 50 μM pretreatment, Tc 40 μM, Dox 1 μM 24 h): rescued the apoptotic effects
